The record followed here is patent US12377104B1, “Methods for treating a fatty liver disease” (Madrigal Pharmaceuticals, Inc., priority 2024, dated 2025).

Data set [1] has as its system adults with biopsy-confirmed NASH. Description: 36-week Phase 2 serial MRI-PDFF and liver biopsy study: liver volume and PDFF. Type of data set: in vivo, human. On the procedure:
Hepatomegaly may cause symptoms (e.g., pain) in NASH patients, and is thought to be driven primarily by high liver fat content. […] This study was to assess the relationship between liver triglycerides as measured by MRI-PDFF and liver volume (LV) in placebo and resmetirom-treated patients.
LV was assessed using a validated artificial intelligence model for segmenting the liver on standard MR images.
LV at baseline was elevated in non-cirrhotic and cirrhotic NASH patients relative to literature values for healthy controls and was greater than predicted even after accounting for sex and body weight. PDFF correlated with LV at baseline in non-cirrhotic (r2=0.19, p<0.001) and more weakly in cirrhotic NASH (r2=0.079, p=0.01).

Data set [2] addresses T1, CYP2C8 (Homo sapiens, UniProt P10632).
T1 sequence (P10632 1-490): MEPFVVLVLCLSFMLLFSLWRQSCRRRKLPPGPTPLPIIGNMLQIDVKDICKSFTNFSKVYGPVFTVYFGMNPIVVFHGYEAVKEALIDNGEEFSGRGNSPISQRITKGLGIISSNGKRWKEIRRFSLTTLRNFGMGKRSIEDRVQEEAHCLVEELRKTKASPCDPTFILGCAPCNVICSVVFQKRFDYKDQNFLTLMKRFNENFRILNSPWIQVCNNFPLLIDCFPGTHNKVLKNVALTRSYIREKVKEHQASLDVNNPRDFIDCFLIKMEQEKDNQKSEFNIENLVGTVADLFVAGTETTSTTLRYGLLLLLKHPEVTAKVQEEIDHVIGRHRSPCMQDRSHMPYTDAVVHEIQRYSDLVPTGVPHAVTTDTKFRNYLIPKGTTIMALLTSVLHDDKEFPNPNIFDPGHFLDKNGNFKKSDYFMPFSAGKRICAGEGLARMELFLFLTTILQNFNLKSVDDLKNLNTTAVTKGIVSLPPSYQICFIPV
Briefly: In vitro metabolism by CYP enzymes. Type of data set: in vitro ADME.

In data set [3] the target is T1, CYP2C8. Briefly: Concomitant use with a CYP2C8 inhibitor. Set-up: from tissue; host or cells: human subjects in vivo (endogenous enzyme). Conditions: in vivo.

Each structure is given as a SMILES string.

For `CC(C)c1cc(Oc2c(Cl)cc(-n3nc(C#N)c(=O)[nH]c3=O)cc2Cl)n[nH]c1=O` [Resmetirom, 2-(3,5-dichloro-4-((5-isopropyl-6-oxo-1,6-dihydropyridazin-3-yl)oxy)phenyl)-3,5-dioxo-2,3,4,5-tetrahydro-1,2,4-triazine-6-carbonitrile], the “LV reduction (CFB)” value is −18.6% in data set [1] (12 weeks) and −20.5% in data set [1] (36 weeks). Further, the “patients with ≥15% reduction in liver volume” value in data set [1] (Week 12) was 69.2%. For the same compound, the “metabolizing CYP enzymes” value on CYP2C8 [2] is “metabolized by CYP2C8 and is not metabolized by other cytrochrome P450 (CYP) enzymes”. For the same compound, the “effect of concomitant CYP2C8 inhibitor on exposure” value at CYP2C8 [3] was “increase resmetirom Cmax and AUC”.
